In BindingDB's records for doi:10.1021/jm9801760 (National Cancer Institute-Bethesda, 1998) one finds IC50 data, which are given here for nine compounds.

Assay [1] has as its target T1, Integrase (Human immunodeficiency virus 1, UniProt Q7ZJM1). Description: Inhibitory concentration as 50% inhibition of HIV-1 integrase enzyme at strand transfer stage of DNA integration.
For assay [2], the target named is T1, Integrase. In words: Inhibition of HIV-1 integrase enzyme at 3`- processing stage of DNA integration.

T1 sequence (Q7ZJM1 whole entry): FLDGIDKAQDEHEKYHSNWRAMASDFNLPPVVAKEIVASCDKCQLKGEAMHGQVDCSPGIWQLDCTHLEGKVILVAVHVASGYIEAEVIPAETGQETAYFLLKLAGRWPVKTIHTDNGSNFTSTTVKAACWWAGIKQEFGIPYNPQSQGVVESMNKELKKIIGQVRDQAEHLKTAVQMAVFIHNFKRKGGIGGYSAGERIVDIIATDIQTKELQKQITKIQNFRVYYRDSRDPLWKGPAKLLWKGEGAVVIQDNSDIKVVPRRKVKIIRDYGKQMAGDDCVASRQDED

What is called IC50 is the concentration needed to halve the response being measured. Higher therefore signals weaker potency. With `C=c1[nH]n(C(=O)c2ccc(Cl)cc2)c(=O)c1=Cc1ccc(O)cc1`, the IC50 at Integrase [1] and against Integrase [2] was > 293 µM throughout.

Regarding `C=c1[nH]n(C(=O)c2ccccc2O)c(=O)c1=Cc1ccc(OC)cc1`, at Integrase [2], the half-inhibitory concentration (IC50) came out at 0.9 µM.

For `C=c1[nH]n(C(=O)c2ccccc2O)c(=O)c1=Cc1ccc(O)c(OC)c1` [2-(2-Hydroxy-benzoyl)-4-[1-(4-hydroxy-3-methoxy-phenyl)-meth-(E)-ylidene]-5-methyl-2,4-dihydro-pyrazol-3-one], the results for the IC50 at Integrase [1] and against Integrase [2] were 0.6 µM and 0.8 µM, respectively.

Take `C=c1[nH]n(C(=O)c2ccccc2O)c(=O)c1=Cc1ccc(O)cc1` [2-(2-Hydroxy-benzoyl)-4-[1-(4-hydroxy-phenyl)-meth-(E)-ylidene]-5-methyl-2,4-dihydro-pyrazol-3-one]: the half-inhibitory concentration (IC50) against Integrase [1] worked out at 0.9 µM; against Integrase [2], 0.6 µM.

With `C=c1[nH]n(C(=O)c2ccc(Cl)cc2)c(=O)c1=Cc1ccccc1O` [2-(4-Chloro-benzoyl)-4-[1-(2-hydroxy-phenyl)-meth-(E)-ylidene]-5-methyl-2,4-dihydro-pyrazol-3-one], the IC50 on Integrase [1] and at Integrase [2] was > 293 µM in each case.

As to `C=c1[nH]n(C(=O)c2ccc(Cl)cc2)c(=O)c1=Cc1ccc(OC)c(OC)c1` [2-(4-Chloro-benzoyl)-4-[1-(3,4-dimethoxy-phenyl)-meth-(E)-ylidene]-5-methyl-2,4-dihydro-pyrazol-3-one], the half-inhibitory concentration (IC50) against Integrase [1] and at Integrase [2] was > 260 µM each time.

As for `C=c1[nH]n(C(=O)c2ccc(Cl)cc2)c(=O)c1=Cc1cccc(O)c1` [2-(4-Chloro-benzoyl)-4-[1-(3-hydroxy-phenyl)-meth-(E)-ylidene]-5-methyl-2,4-dihydro-pyrazol-3-one], the IC50 against Integrase [1] and against Integrase [2] was > 293 µM each time.

On to `C=c1[nH]n(C(=O)c2ccc(Cl)cc2)c(=O)c1=Cc1ccc(Cl)cc1` [2-(4-Chloro-benzoyl)-4-[1-(4-chloro-phenyl)-meth-(E)-ylidene]-5-methyl-2,4-dihydro-pyrazol-3-one], for which the half-maximal inhibitory concentration (IC50) at Integrase [1] and against Integrase [2] was > 280 µM each time.

For the compound `C=c1[nH]n(C(=O)c2ccc(Cl)cc2)c(=O)c1=Cc1cc(OC)c(OC)c(OC)c1` [2-(4-Chloro-benzoyl)-5-methyl-4-[1-(3,4,5-trimethoxy-phenyl)-meth-(E)-ylidene]-2,4-dihydro-pyrazol-3-one], the half-inhibitory concentration (IC50) on Integrase [1] and on Integrase [2] was > 240 µM throughout.
